Experimental data published in ChEMBL document CHEMBL6103565, “Current strategies in design and synthesis of antifungals hybrid and chimeric diazine derivatives” (Bioorg Med Chem, 2025).
Converted amounts (≈) assume the structure as drawn. One block for each compound: values may come before it.

Assays:
Cryptococcus neoformans = experiment: Antifungal activity against Cryptococcus neoformans assessed as reduction in fungal growth incubated for 24 hrs by broth microdilution method; type: functional
Aspergillus niger [1] = experiment: Antifungal activity against Aspergillus niger MTCC 282 by disc diffusion method; type: functional, organism-based
Candida albicans [2] = experiment: Antifungal activity against Candida albicans MTCC 227 by disc diffusion method; type: functional, organism-based
Aspergillus flavus = experiment: Antimicrobial activity against Aspergillus flavus assessed as zone of inhibition; type: functional
Candida albicans [3] = experiment: Antimicrobial activity against Candida albicans ATCC 64124 assessed as reduction in microbial growth by CLSI protocol based micro-broth dilution method; type: functional
Trichophyton rubrum = experiment: Antifungal activity against Trichophyton rubrum assessed as diameter of zone inhibition; type: functional
Candida tropicalis = experiment: Antifungal activity against Candida tropicalis assessed as zone of inhibition by disc diffusion method; type: functional
Aspergillus niger [4] = experiment: Antifungal activity against Aspergillus niger assessed as zone of inhibition by disc diffusion method; type: functional
Botrytis cinerea = experiment: Antifungal activity against Botrytis cinerea assessed as reduction in fungal growth at 50 ug/ml relative to control; type: functional
Aspergillus niger [5] = experiment: Antifungal activity against Aspergillus niger assessed as diameter of zone inhibition; type: functional
Candida albicans [6] = experiment: Antifungal activity against Candida albicans assessed as diameter of zone inhibition; type: functional
Candida albicans [7] = experiment: Antifungal activity against Candida albicans assessed as reduction in fungal growth incubated for 48 hrs by broth micro-dilution method; type: functional
Candida albicans [8] = experiment: Antifungal activity against Candida albicans ATCC 10231 assessed as inhibition of mycelial growth relative to control; type: functional
Botryosphaeria dothidea = experiment: Antifungal activity against Botryosphaeria dothidea assessed as reduction in fungal growth at 50 ug/ml relative to control; type: functional
Phomopsis = experiment: Antifungal activity against Phomopsis assessed as reduction in fungal growth at 50 ug/ml relative to control; type: functional
[9] = test system: Syncephalastrum racemosum; experiment: Antifungal activity against Syncephalastrum racemosum assessed as zone of inhibition; type: functional
Candida albicans [10] = experiment: Antifungal activity against Candida albicans NRRL-Y477 assessed as zone of inhibition by disc diffusion method; type: functional
Candida albicans [11] = experiment: Antifungal activity against Candida albicans MTCC 4748 assessed as inhibition of fungal growth incubated for 24 hrs; type: functional
Candida albicans [12] = experiment: Antifungal activity against Candida albicans MTCC 7315 assessed as inhibition of fungal growth incubated for 24 hrs; type: functional
Pichia kudriavzevii = experiment: Antifungal activity against Pichia kudriavzevii MTCC 3020 assessed as inhibition of fungal growth incubated for 24 hrs; type: functional
Candida parapsilosis = experiment: Antifungal activity against Candida parapsilosis MTCC 1744 assessed as inhibition of fungal growth incubated for 24 hrs; type: functional; conditions: Lodderomyces parapsilosis
Candida albicans [13] = experiment: Antifungal activity against Candida albicans MTCC 3018 assessed as inhibition of fungal growth incubated for 24 hrs; type: functional
Candida albicans [14] = experiment: Antifungal activity against Candida albicans MTCC 3017 assessed as inhibition of fungal growth incubated for 24 hrs; type: functional
Candida albicans [15] = experiment: Antifungal activity against Candida albicans MTCC 227 assessed as inhibition of fungal growth incubated for 24 hrs; type: functional
Nakaseomyces glabratus = experiment: Antifungal activity against Candida glabrata MTCC 3019 assessed as inhibition of fungal growth incubated for 24 hrs; type: functional
Candida albicans [16] = experiment: Antifungal activity against Candida albicans MTCC 1637 assessed as inhibition of fungal growth incubated for 24 hrs; type: functional
Aspergillus fumigatus = experiment: Antifungal activity against Aspergillus fumigatus assessed as zone of inhibition; type: functional
Aspergillus niger [17] = experiment: Antifungal activity against Aspergillus niger assessed as zone of inhibition; type: functional
Candida albicans [18] = experiment: Antifungal activity against Candida albicans assessed as zone of inhibition; type: functional
Candida albicans [19] = experiment: Antifungal activity against Candida albicans ATCC 10231 assessed as zone of inhibition incubated for 24 hrs by disc diffusion method; type: functional
Candida albicans [20] = experiment: Antifungal activity against azole-resistant Candida albicans ATCC 18804 assessed as fungal growth inhibition incubated for 24 hrs by CLSI protocol based broth microdilution method; type: functional

- MIC (Cryptococcus neoformans): 12.5 µg/mL (≈ 23 µM)
Compound: Cc1nc(NC(=O)c2cc(C(F)(F)F)cc(C(F)(F)F)c2)c2c(C(F)(F)F)cc(-c3ccccc3)nc2n1

- EC50 (Aspergillus niger [1]): 0.15 µg/mL (≈ 0.38 µM)
- EC50 (Candida albicans [2]): 0.15 µg/mL (≈ 0.38 µM)
Compound: CC(=O)N1N=C(C2=C(C)NC(=O)NC2c2ccc(F)cc2)OC1c1ccccc1 (stereo not given)

Compound: O=C1CSC(c2ccccc2)N1c1nc(-c2ccccc2)cc(-c2ccccn2)n1 (stereo not given)
- inhibition zone (IZ) (Aspergillus flavus): 10 mm

- MIC (Candida albicans [3]): 4 µg/mL
Compound: Cc1nc(-c2ccc(C(C)(C)C)cc2)sc1-c1ccnc(N[C@H]2CCCCC2CN)n1 (stereo not given in full)

Compound: Cc1c(-c2ccc(Br)cc2)nnc(O)c1Br
- inhibition zone (IZ) (Trichophyton rubrum): 14 mm

Compound: COc1ccc(C2C3C(C)=NN(c4ccccc4)C3N=C3SCCN32)cc1 (stereo not given)
- inhibition zone (IZ) (Candida tropicalis): 26 mm
- inhibition zone (IZ) (Aspergillus niger [4]): 24 mm

Compound: O=C(Nc1ccc(F)c(Cl)c1)c1ccc(Oc2cc(C(F)(F)F)ncn2)cc1
- inhibition at 50 µg/mL (Botrytis cinerea): 91.7%

Compound: Cc1cccc(-c2nc3ccccc3nc2N2CCN(C)CC2)c1
- inhibition zone (IZ) (Aspergillus niger [5]): 16 mm
- inhibition zone (IZ) (Candida albicans [6]): 14 mm

Compound: O=C1CNC(c2ccc(Cl)cc2)N1c1nc(-c2ccc(Cl)cc2)cc(-c2ccccn2)n1 (stereo not given)
- inhibition zone (IZ) (Aspergillus flavus): 10 mm

Compound: Oc1nnc(-c2ccccc2Cl)cc1Br
- inhibition zone (IZ) (Trichophyton rubrum): 14 mm

- MIC (Candida albicans [7]): 3.12 µg/mL (≈ 7.02 µM)
Compound: Cc1ccc(S(=O)(=O)Nc2nc(/N=N/c3c(N)nn4c(C)cc(=O)[nH]c34)cs2)cc1

- MIC (Cryptococcus neoformans): 25 µg/mL (≈ 98.7 µM)
Compound: NC(=S)NNC(=O)c1c[nH]c2ncnn2c1=O

Compound: O=C(Nc1ccccc1)c1nnn2c1[nH]c(=O)c1ccccc12
- inhibition (INH) (Candida albicans [8]): 40%

Compound: Cc1nc(Oc2ccc(C(=O)Nc3ccc(F)cc3)cc2)cc(C(F)(F)F)n1
- inhibition at 50 µg/mL (Botryosphaeria dothidea): 85.9%

Compound: Cc1nc(Oc2ccc(C(=O)Nc3ccc(OC(F)(F)F)c(Cl)c3)cc2)cc(C(F)(F)F)n1
- inhibition at 50 µg/mL (Botrytis cinerea): 98.5%
- inhibition at 50 µg/mL (Phomopsis): 92%
- inhibition at 50 µg/mL (Botryosphaeria dothidea): 98.5%

Compound: CCc1nnc2c(Nc3ccc(Br)cc3)nc3ccccc3n12
- inhibition zone (IZ) [9]: 20 mm

Compound: CCOC(=O)c1c(C)nc2sc3c(SCC(=O)Nc4ccc(C)cc4)ncnc3c2c1-c1cccs1
- inhibition zone (IZ) (Candida albicans [10]): 25 mm
- inhibition zone (IZ) (Aspergillus niger [4]): 24 mm

- MIC (Candida albicans [11]): 3.9 µg/mL (≈ 9.15 µM)
- MIC (Candida albicans [12]): 3.9 µg/mL (≈ 9.15 µM)
- MIC (Pichia kudriavzevii): 3.9 µg/mL (≈ 9.15 µM)
- MIC (Candida parapsilosis): 3.9 µg/mL (≈ 9.15 µM)
- MIC (Candida albicans [13]): 3.9 µg/mL (≈ 9.15 µM)
- MIC (Candida albicans [14]): 3.9 µg/mL (≈ 9.15 µM)
- MIC (Candida albicans [15]): 3.9 µg/mL (≈ 9.15 µM)
- MIC (Nakaseomyces glabratus): 3.9 µg/mL (≈ 9.15 µM)
- MIC (Candida albicans [16]): 3.9 µg/mL (≈ 9.15 µM)
Compound: O=[N+]([O-])c1ccc(-c2nnc3c4ccc(C(F)(F)F)nc4nc(-c4ccco4)n23)cc1

Compound: O=C(Nc1ccc(F)cc1)c1ccc(Oc2cc(C(F)(F)F)ncn2)cc1
- inhibition at 50 µg/mL (Botrytis cinerea): 90.3%
- inhibition at 50 µg/mL (Botryosphaeria dothidea): 89.8%

Compound: Nc1nc(=S)[nH]c(N)c1C1=NC2=Nc3ccccc3C2=N1
- inhibition zone (IZ) (Aspergillus flavus): 14 mm

Compound: Oc1nnc(-c2ccc(Cl)cc2)cc1Br
- inhibition zone (IZ) (Trichophyton rubrum): 14 mm

Compound: CCc1nnc2c(Nc3ccc(C4=NN(C(N)=O)C(c5ccc(Cl)cc5)C4)cc3)nc3ccccc3n12 (stereo not given)
- inhibition zone (IZ) [9]: 21 mm
- inhibition zone (IZ) (Aspergillus fumigatus): 22 mm

Compound: CC(=O)N(C(C)=O)N1C(=O)CC(=O)N(c2nnc(-c3cc([N+](=O)[O-])cc([N+](=O)[O-])c3)s2)C1=S
- inhibition zone (IZ) (Aspergillus niger [17]): 21 mm
- inhibition zone (IZ) (Candida albicans [18]): 23 mm

Compound: CCc1ccccc1/N=N/c1c(N)nc2c(/N=N/c3ccccc3CC)cnn2c1N
- inhibition zone (IZ) (Candida albicans [19]): 21 mm

Compound: C=CCNN1CCN(c2nc3ccccc3nc2-c2cccc(C)c2)CC1
- inhibition zone (IZ) (Aspergillus niger [5]): 14 mm
- inhibition zone (IZ) (Candida albicans [6]): 13 mm

Compound: C/C=C/N1CCN(c2nc3ccccc3nc2-c2cccc(C)c2)CC1
- inhibition zone (IZ) (Aspergillus niger [5]): 15 mm
- inhibition zone (IZ) (Candida albicans [6]): 14 mm

Compound: CCc1nnc2c(Nc3ccc(C4=NN(C(N)=S)C(c5ccccc5)C4)cc3)nc3ccccc3n12 (stereo not given)
- inhibition zone (IZ) [9]: 20 mm

Compound: O=c1ccc(=O)n(-c2nc(-c3cc4c(ccc5ccccc54)oc3=O)cs2)[nH]1
- MIC (Candida albicans [20]): 0.9 µg/mL (≈ 2.31 µM)

- EC50 (Aspergillus niger [1]): 0.2 µg/mL (≈ 0.466 µM)
- EC50 (Candida albicans [2]): 0.2 µg/mL (≈ 0.466 µM)
Compound: CC(=O)N1N=C(C2=C(C)NC(=O)NC2c2ccc(F)cc2)OC1c1ccc(Cl)cc1 (stereo not given)

Compound: Cc1nc(Oc2ccc(C(=O)Nc3ccc(Br)c(Cl)c3)cc2)cc(C(F)(F)F)n1
- inhibition at 50 µg/mL (Botrytis cinerea): 83.8%
